Values of other authors in patent US12667556B2, “Extended release injectable formulations comprising an isoxazoline active agent, methods and uses thereof” (BOEHRINGER INGELHEIM ANIMAL HEALTH USA INC., priority 2015, dated 2026).
≈ marks a conversion by molar mass, not a printed value.

System: fleas

O=C(CNC(=O)c1ccc(C2=NOC(c3cc(Cl)cc(C(F)(F)F)c3)(C(F)(F)F)C2)c2ccccc12)NCC(F)(F)F (centres unmarked) [compound (IIc), 4-[5-[3-chloro-5-(trifluoromethyl)phenyl]-4,5-dihydro-5-(trifluoromethyl)-3-isoxazolyl]-N-[2-oxo-2-[(2,2,2-trifluoroethyl)amino]ethyl]-1-naphthalenecarboxamide]
EC90 (plasma concentration) against fleas on dogs (Letendre et al., Veterinary Parasitology 201 (2014) 190-197): 0.023 µg/mL (≈ 0.0367 µM)
plasma concentration known to effectively control fleas on dogs (known, literature): about 20 ng/ml
